Marks after values point to notes of the source that are not given here.
Experiment: Qualitative cyclic voltammetry of quinoxaline electrolytes
Type: physicochemical
Procedure: Quinoxaline electrochemical behavior was characterized in a number of aqueous electrolytes. […] All electrochemical measurements presented in this paper were performed using a Biologic VSP-300 potentiostat. Glassy carbon electrodes were used as working electrodes in voltammetry experiments and were polished using 0.05 μm alumina suspension before performing a new set of measurements. Solution resistances were measured prior to electrochemical experiments to be 5Ω. Due to small peak currents during CV (less than 1 mA), the maximum estimated iR drop was 5 mV. During qualitative CV experiments, a 75% solution resistance compensation (iR correction) was applied during the experiment to ensure high quality data in untested systems. Quantitative CV techniques were carried with no iR correction as the small potential offset was unlikely to affect experimental results. Additionally, no iR correction was applied during RDV experiments because analyses only considered the limiting RDV current, which is unaffected by ohmic losses. All potentials given herein are presented versus the reversible hydrogen electrode (RHE), unless otherwise stated. Experimental potentials were determined versus a calibrated Ag/AgCl reference electrode and converted to potentials versus RHE using the […] equation and the pH of the solution, measured with a pH meter. All currents utilized in quantitative calculations were background corrected, assuming the background current was composed of non-faradaic, hydrogen evolution reaction and oxygen reduction reaction currents. Qualitative CV experiments were carried out in a three-electrode cell with a 0.3 cm diameter glassy carbon electrode (0.071 cm^2, CH Instruments), a platinum (Pt) wire counter electrode (CH Instruments) and a Ag/AgCl (3 M NaCl, BASi Inc.) reference electrode. […] Three-electrode cells were filled with 10 mL of solution, and the solution was bubbled with argon at a rate of 50 mL/min for 10 min prior to experiments. The argon bubbling tube was then adjusted such that it provided a blanket of argon gas over the surface of the solution. Then, ten cycles of CV were recorded at a scan rate of 100 mV/s. […] A linear slope to the front of an anodic peak (ma) and cathodic peak (mc) was estimated as a rough indicator of the overall reaction rate of either the forward or backward reaction, combining effects of both reaction kinetics and mass-transport. Achieving a slope ratio (ma/mc) of one, indicates an equally fast forward and backward overall reaction rate.

[1] = 0.45M Li2SO4/0.1M LiOH, pH 12.2
[2] = 0.495M K2SO4/0.01M KOH, pH 11.8
[3] = 0.495M Li2SO4/0.01M LiOH, pH 12.0
[4] = 0.5M K2SO4, pH 8.9, considerable degradation
[5] = 0.9M NaC2H3O2/0.1M NaOH, pH 12.7
[6] = 0.99M LiNO3/0.01M LiOH, pH 11.3
[7] = 0.99M NaC2H3O2/0.01M NaOH, pH 11.8
[8] = 0.99M NaHCO3/0.01M NaOH, pH 8.7
[9] = 0.99M NaNO3/0.01M NaOH, pH 11.6
[10] = 1M KNO3, pH 7.2, significant hydrogen evolution reaction current
[11] = 1M LiCl, pH 3.8, considerable degradation
[12] = 1M LiNO3, pH 6.0, significant hydrogen evolution reaction current
[13] = 1M NaHCO3, pH 8.7, considerable degradation

SMILES: c1ccc2nccnc2c1 [quinoxaline]
- E° vs. RHE (0.45M K2SO4/0.1M KOH, pH 12.8): −0.50 V
- ipa, 10/ipa, 2 (0.45M K2SO4/0.1M KOH, pH 12.8): 0.99
- ipc, 10/ipc, 2 (0.45M K2SO4/0.1M KOH, pH 12.8): 0.97
- ma/mc (0.45M K2SO4/0.1M KOH, pH 12.8): 0.51
- ΔEpp, 10/ΔEpp, 2 (0.45M K2SO4/0.1M KOH, pH 12.8): 1.05
- E° vs. RHE [1]: −0.52 V
- ipa, 10/ipa, 2 [1]: 1.00
- ipc, 10/ipc, 2 [1]: 0.99
- ma/mc [1]: 0.46
- ΔEpp, 10/ΔEpp, 2 [1]: 1.02
- E° vs. RHE [2]: −0.51 V
- ipa, 10/ipa, 2 [2]: 0.98
- ipc, 10/ipc, 2 [2]: 0.95
- ma/mc [2]: 0.64
- ΔEpp, 10/ΔEpp, 2 [2]: 1.08
- E° vs. RHE [3]: −0.52 V
- ipa, 10/ipa, 2 [3]: 0.96
- ipc, 10/ipc, 2 [3]: 0.95
- ma/mc [3]: 0.55
- ΔEpp, 10/ΔEpp, 2 [3]: 1.06
- E° vs. RHE [4]: −0.90 ^‡ V
- ipc, 10/ipc, 2 [4]: 0.45 ^‡
- ma/mc [4]: 0.91 ^‡
- ΔEpp, 10/ΔEpp, 2 [4]: 2.16 ^‡
- E° vs. RHE (0.5M Li2SO4, pH 6.6, considerable degradation): −0.81 ^‡ V
- E° vs. RHE (0.9M KCl/0.1M KOH, pH 12.8): −0.45 V
- ipa, 10/ipa, 2 (0.9M KCl/0.1M KOH, pH 12.8): 0.99
- ipc, 10/ipc, 2 (0.9M KCl/0.1M KOH, pH 12.8): 0.96
- ma/mc (0.9M KCl/0.1M KOH, pH 12.8): 0.46
- ΔEpp, 10/ΔEpp, 2 (0.9M KCl/0.1M KOH, pH 12.8): 1.05
- E° vs. RHE (0.9M KNO3/0.1M KOH, pH 12.8): −0.50 V
- ipa, 10/ipa, 2 (0.9M KNO3/0.1M KOH, pH 12.8): 0.99
- ipc, 10/ipc, 2 (0.9M KNO3/0.1M KOH, pH 12.8): 0.98
- ma/mc (0.9M KNO3/0.1M KOH, pH 12.8): 0.53
- ΔEpp, 10/ΔEpp, 2 (0.9M KNO3/0.1M KOH, pH 12.8): 1.03
- E° vs. RHE (0.9M LiCl/0.1M LiOH, pH 12.1): −0.53 V
- ipa, 10/ipa, 2 (0.9M LiCl/0.1M LiOH, pH 12.1): 1.00
- ipc, 10/ipc, 2 (0.9M LiCl/0.1M LiOH, pH 12.1): 0.99
- ma/mc (0.9M LiCl/0.1M LiOH, pH 12.1): 0.51
- ΔEpp, 10/ΔEpp, 2 (0.9M LiCl/0.1M LiOH, pH 12.1): 1.04
- E° vs. RHE (0.9M LiNO3/0.1M LiOH, pH 12.1): −0.48 V
- ipa, 10/ipa, 2 (0.9M LiNO3/0.1M LiOH, pH 12.1): 0.99
- ipc, 10/ipc, 2 (0.9M LiNO3/0.1M LiOH, pH 12.1): 0.95
- ma/mc (0.9M LiNO3/0.1M LiOH, pH 12.1): 0.51
- ΔEpp, 10/ΔEpp, 2 (0.9M LiNO3/0.1M LiOH, pH 12.1): 1.10
- E° vs. RHE [5]: −0.51 V
- ipa, 10/ipa, 2 [5]: 1.00
- ipc, 10/ipc, 2 [5]: 0.97
- ma/mc [5]: 0.46
- ΔEpp, 10/ΔEpp, 2 [5]: 1.04
- E° vs. RHE (0.9M NaHCO3/0.1M NaOH, pH 9.1): −0.53 V
- ipa, 10/ipa, 2 (0.9M NaHCO3/0.1M NaOH, pH 9.1): 0.82
- ipc, 10/ipc, 2 (0.9M NaHCO3/0.1M NaOH, pH 9.1): 0.78
- ma/mc (0.9M NaHCO3/0.1M NaOH, pH 9.1): 1.63
- ΔEpp, 10/ΔEpp, 2 (0.9M NaHCO3/0.1M NaOH, pH 9.1): 1.56
- E° vs. RHE (0.9M NaNO3/0.1M NaOH, pH 12.5): −0.52 V
- ipa, 10/ipa, 2 (0.9M NaNO3/0.1M NaOH, pH 12.5): 0.98
- ipc, 10/ipc, 2 (0.9M NaNO3/0.1M NaOH, pH 12.5): 0.98
- ma/mc (0.9M NaNO3/0.1M NaOH, pH 12.5): 0.50
- ΔEpp, 10/ΔEpp, 2 (0.9M NaNO3/0.1M NaOH, pH 12.5): 1.07
- ip,a (0.99 M KCl/0.01 M KOH, across all cycles): 0.12 mA
- E° vs. RHE (0.99M KCl/0.01M KOH, pH 11.8): −0.48 V
- ipa, 10/ipa, 2 (0.99M KCl/0.01M KOH, pH 11.8): 1.00
- ipc, 10/ipc, 2 (0.99M KCl/0.01M KOH, pH 11.8): 0.97
- ma/mc (0.99M KCl/0.01M KOH, pH 11.8): 0.59
- ΔEpp, 10/ΔEpp, 2 (0.99M KCl/0.01M KOH, pH 11.8): 1.02
- E° vs. RHE (0.99M KNO3/0.01M KOH, pH 11.7): −0.52 V
- ipa, 10/ipa, 2 (0.99M KNO3/0.01M KOH, pH 11.7): 1.00
- ipc, 10/ipc, 2 (0.99M KNO3/0.01M KOH, pH 11.7): 0.97
- ma/mc (0.99M KNO3/0.01M KOH, pH 11.7): 0.64
- ΔEpp, 10/ΔEpp, 2 (0.99M KNO3/0.01M KOH, pH 11.7): 1.01
- E° vs. RHE (0.99M LiCl/0.01M LiOH, pH 11.4): −0.52 V
- ipa, 10/ipa, 2 (0.99M LiCl/0.01M LiOH, pH 11.4): 0.99
- ipc, 10/ipc, 2 (0.99M LiCl/0.01M LiOH, pH 11.4): 0.96
- ma/mc (0.99M LiCl/0.01M LiOH, pH 11.4): 0.63
- ΔEpp, 10/ΔEpp, 2 (0.99M LiCl/0.01M LiOH, pH 11.4): 1.05
- E° vs. RHE [6]: −0.47 V
- ipa, 10/ipa, 2 [6]: 0.98
- ipc, 10/ipc, 2 [6]: 0.95
- ma/mc [6]: 0.67
- ΔEpp, 10/ΔEpp, 2 [6]: 1.08
- E° vs. RHE [7]: −0.52 V
- ipa, 10/ipa, 2 [7]: 1.01
- ipc, 10/ipc, 2 [7]: 0.97
- ma/mc [7]: 0.58
- ΔEpp, 10/ΔEpp, 2 [7]: 1.06
- E° vs. RHE [8]: −0.53 V
- ipa, 10/ipa, 2 [8]: 0.06
- ipc, 10/ipc, 2 [8]: 0.50
- ma/mc [8]: 1.61
- ΔEpp, 10/ΔEpp, 2 [8]: 2.90
- E° vs. RHE [9]: −0.52 V
- ipa, 10/ipa, 2 [9]: 1.00
- ipc, 10/ipc, 2 [9]: 0.96
- ma/mc [9]: 0.61
- ΔEpp, 10/ΔEpp, 2 [9]: 1.04
- ip,a (1 M KCl, cycle 2): 0.11 mA
- ip,a (1 M KCl, cycle 10): 0.06 mA
- E° vs. RHE (1M KCl, pH 5.4): −0.80 V
- ipa, 10/ipa, 2 (1M KCl, pH 5.4): 0.57
- ipc, 10/ipc, 2 (1M KCl, pH 5.4): 0.56
- ma/mc (1M KCl, pH 5.4): 0.75
- ΔEpp, 10/ΔEpp, 2 (1M KCl, pH 5.4): 1.85
- E° vs. RHE [10]: −0.76 ^† V
- ipa, 10/ipa, 2 [10]: 0.91 ^†
- ipc, 10/ipc, 2 [10]: 1.01 ^†
- ma/mc [10]: 1.51 ^†
- ΔEpp, 10/ΔEpp, 2 [10]: 1.04 ^†
- peak separation (1 M KOH, 1 M NaOH, or 1 M LiOH): ~150 mV
- E° vs. RHE (1M KOH, pH 13.7): −0.48 V
- ipa, 10/ipa, 2 (1M KOH, pH 13.7): 0.98
- ipc, 10/ipc, 2 (1M KOH, pH 13.7): 0.97
- ma/mc (1M KOH, pH 13.7): 0.42
- ΔEpp, 10/ΔEpp, 2 (1M KOH, pH 13.7): 1.04
- E° vs. RHE [11]: −0.94 ^‡ V
- ipc, 10/ipc, 2 [11]: 0.08 ^‡
- ma/mc [11]: 0.96 ^‡
- ΔEpp, 10/ΔEpp, 2 [11]: 2.95 ^‡
- E° vs. RHE [12]: −0.75 ^† V
- ipa, 10/ipa, 2 [12]: 0.80 ^†
- ipc, 10/ipc, 2 [12]: 0.91 ^†
- ma/mc [12]: 1.94 ^†
- ΔEpp, 10/ΔEpp, 2 [12]: 1.11 ^†
- E° vs. RHE (1M LiOH, pH 12.7): −0.55 V
- ipa, 10/ipa, 2 (1M LiOH, pH 12.7): 0.98
- ipc, 10/ipc, 2 (1M LiOH, pH 12.7): 0.96
- ma/mc (1M LiOH, pH 12.7): 0.45
- ΔEpp, 10/ΔEpp, 2 (1M LiOH, pH 12.7): 1.00
- E° vs. RHE (1M NaC2H3O2, pH 8.6, two distinct reduction and oxidation peaks): −0.68 * V
- E° vs. RHE [13]: −0.53 ^‡ V
- ma/mc [13]: 1.51 ^‡
- E° vs. RHE (1M NaNO3, pH 6.8): −0.77 V
- ipa, 10/ipa, 2 (1M NaNO3, pH 6.8): 0.12
- ipc, 10/ipc, 2 (1M NaNO3, pH 6.8): 0.46
- ma/mc (1M NaNO3, pH 6.8): 0.82
- ΔEpp, 10/ΔEpp, 2 (1M NaNO3, pH 6.8): 1.78
- E° vs. RHE (1M NaOH, pH 13.8): −0.48 V
- ipa, 10/ipa, 2 (1M NaOH, pH 13.8): 0.99
- ipc, 10/ipc, 2 (1M NaOH, pH 13.8): 0.98
- ma/mc (1M NaOH, pH 13.8): 0.46
- ΔEpp, 10/ΔEpp, 2 (1M NaOH, pH 13.8): 1.01
- peak separation (KCl electrolyte with 0.01 M KOH, cycle 2): 230 mV
- peak separation (KCl electrolyte with 0.1 M KOH, cycle 2): 200 mV
- ratio of charge transferred between the cathodic and anodic scans (all electrolytes with pH≥11.4, within a particular CV cycle): exceeded 0.9
- redox potential E° vs. RHE (cases where quinoxaline exhibited stable performance over multiple CV cycles): ≈ −0.5 V
- redox potential E° vs. RHE (electrolytes where degradation of quinoxaline was observed, not indicators of the actual redox potential): ≤ −0.75 V
- peak separation (sulfate and chloride anions, at 0.01 M OH^−): < 220 mV
- peak separation (sulfate and chloride anions, at 0.1 M OH^−): < 200 mV
